pEC50: −log10 of the molar value. Where two headings read alike, the source gives them in different places.
Molecular target: T1, recombinant human GluN1/GluN2A receptor (Homo sapiens, UniProt Q05586+Q12879)
T1 construct: expressed in transfected cells; host or cells: HEK293, tetracycline-inducible expression
Assay: Whole-cell patch clamp of mammalian cells (Syncropatch 384i), NMDA modulation
Format: cell-based
Conditions: HEK293 cells, human GluN1/GluN2A, glutamate 1 μM / glycine 100 μM, -80 mV, peak amplitude increase; for pEC50: read-out: EC50
Summary of the method: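 HEK293 cells with tetracycline-induced (50 ng/ml, 18–24 h) human GluN1/GluN2A, automated whole-cell recording at −80 mV, pH 7.4 external. After 120 s compound pre-incubation, compound applied with glutamate 1 μM/glycine 100 μM; fold peak increase (Icomp/Icontrol)−1 over 8 concentrations fitted four-parameter logistic.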

T1 sequence (Q12879 23-1464, other chains not shown): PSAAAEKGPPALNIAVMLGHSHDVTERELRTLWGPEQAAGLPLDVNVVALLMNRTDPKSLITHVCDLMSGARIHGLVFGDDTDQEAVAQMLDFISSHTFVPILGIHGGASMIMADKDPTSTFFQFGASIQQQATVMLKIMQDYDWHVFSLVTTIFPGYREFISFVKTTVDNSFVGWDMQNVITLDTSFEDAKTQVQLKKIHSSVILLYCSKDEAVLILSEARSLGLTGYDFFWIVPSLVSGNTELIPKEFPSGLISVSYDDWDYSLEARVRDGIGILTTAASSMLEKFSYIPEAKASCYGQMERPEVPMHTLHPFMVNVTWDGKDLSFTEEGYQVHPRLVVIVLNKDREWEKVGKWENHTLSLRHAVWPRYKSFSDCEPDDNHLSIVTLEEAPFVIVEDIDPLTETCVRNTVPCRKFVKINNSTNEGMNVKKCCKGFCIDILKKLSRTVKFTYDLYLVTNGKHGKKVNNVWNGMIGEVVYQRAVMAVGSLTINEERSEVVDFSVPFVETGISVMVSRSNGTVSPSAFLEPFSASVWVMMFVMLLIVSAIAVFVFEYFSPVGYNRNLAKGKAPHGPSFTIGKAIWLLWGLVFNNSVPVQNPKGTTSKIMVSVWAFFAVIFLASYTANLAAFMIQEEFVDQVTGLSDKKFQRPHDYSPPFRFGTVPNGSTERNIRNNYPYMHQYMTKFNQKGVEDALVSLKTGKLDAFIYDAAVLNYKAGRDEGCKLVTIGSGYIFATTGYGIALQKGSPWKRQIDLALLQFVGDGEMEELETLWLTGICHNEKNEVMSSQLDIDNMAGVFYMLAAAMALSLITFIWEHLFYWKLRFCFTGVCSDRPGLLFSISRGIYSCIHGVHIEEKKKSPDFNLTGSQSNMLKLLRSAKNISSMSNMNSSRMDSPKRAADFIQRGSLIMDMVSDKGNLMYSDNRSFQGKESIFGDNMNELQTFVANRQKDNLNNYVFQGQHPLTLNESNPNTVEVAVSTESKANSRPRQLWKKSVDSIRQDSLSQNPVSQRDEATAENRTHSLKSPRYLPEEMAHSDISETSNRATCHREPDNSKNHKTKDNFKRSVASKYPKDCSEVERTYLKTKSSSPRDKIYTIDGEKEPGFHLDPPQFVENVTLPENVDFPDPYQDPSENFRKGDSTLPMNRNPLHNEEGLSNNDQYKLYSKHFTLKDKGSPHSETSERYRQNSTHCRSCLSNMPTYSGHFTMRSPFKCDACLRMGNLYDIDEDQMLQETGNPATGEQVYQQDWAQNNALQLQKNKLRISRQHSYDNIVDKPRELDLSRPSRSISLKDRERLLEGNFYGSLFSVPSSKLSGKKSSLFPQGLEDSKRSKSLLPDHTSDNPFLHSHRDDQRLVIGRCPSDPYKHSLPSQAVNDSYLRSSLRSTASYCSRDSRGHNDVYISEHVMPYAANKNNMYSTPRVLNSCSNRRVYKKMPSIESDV

| Emax (Table D-2) [%] | pEC50 (Table D-2) | SMILES | pEC50 (Table C-2) | Emax (Table C-2) [%] | pEC50 (Table E-2) |
| --- | --- | --- | --- | --- | --- |
|  |  | C[C@H](CC[C@@H](O)C1(C#N)CC1)[C@H]1CC[C@H]2[C@@H]3CC=C4C[C@@](C)(O)CC[C@]4(C)[C@H]3CC[C@]12C [Compound C-23, 1-((1R,4R)-1-hydroxy-4-((3S,8S,9S,10R,13R,14S,17R)-3-hydroxy-3,10,13-trimethyl-2,3,4,7,8,9,10,11,12,13,14,15,16,17-tetradecahydro-1H-cyclopenta[a]phenanthren-17-yl)pentyl)cyclopropane-1-carbonitrile] | 7.00 to 9.00 |  |  |
|  |  | C[C@H](CC[C@@H](O)C1(C#N)CCC1)[C@H]1CC[C@H]2[C@@H]3CC=C4C[C@@](C)(O)CC[C@]4(C)[C@H]3CC[C@]12C [Compound C-24, 1-((1R,4R)-1-hydroxy-4-((3S,8S,9S,10R,13R,14S,17R)-3-hydroxy-3,10,13-trimethyl-2,3,4,7,8,9,10,11,12,13,14,15,16,17-tetradecahydro-1H-cyclopenta[a]phenanthren-17-yl)pentyl)cyclobutane-1-carbonitrile] | 7.00 to 9.00 |  |  |
|  |  | C[C@H](CC[C@H](O)C1(C#N)CCC1)[C@H]1CC[C@H]2[C@@H]3CC=C4C[C@@](C)(O)CC[C@]4(C)[C@H]3CC[C@]12C [Compound C-25, 1-((1S,4R)-1-hydroxy-4-((3S,8S,9S,10R,13R,14S,17R)-3-hydroxy-3,10,13-trimethyl-2,3,4,7,8,9,10,11,12,13,14,15,16,17-tetradecahydro-1H-cyclopenta[a]phenanthren-17-yl)pentyl)cyclobutane-1-carbonitrile] | 7.00 to 9.00 | < 100 |  |
|  |  | CC[C@]1(O)CC[C@]2(C)C3=CC[C@]4(C)[C@@H]([C@H](C)CC[C@H](O)C5(C#N)CC5)CC[C@H]4[C@@H]3CC[C@H]2C1 [Compound C-26, 1-((1S,4R)-4-((3S,5S,8S,10S,13R,14S,17R)-3-ethyl-3-hydroxy-10,13-dimethyl-2,3,4,5,6,7,8,10,12,13,14,15,16,17-tetradecahydro-1H-cyclopenta[a]phenanthren-17-yl)-1-hydroxypentyl)cyclopropane-1-carbonitrile] | 7.00 to 9.00 |  | 7.00 to 9.00 |
|  |  | CC[C@]1(O)CC[C@]2(C)C3=CC[C@]4(C)[C@@H]([C@H](C)CC[C@@H](O)C5(C#N)CC5)CC[C@H]4[C@@H]3CC[C@H]2C1 [Compound C-27, 1-((1R,4R)-4-((3S,5S,8S,10S,13R,14S,17R)-3-ethyl-3-hydroxy-10,13-dimethyl-2,3,4,5,6,7,8,10,12,13,14,15,16,17-tetradecahydro-1H-cyclopenta[a]phenanthren-17-yl)-1-hydroxypentyl)cyclopropane-1-carbonitrile] | 7.00 to 9.00 |  | 7.00 to 9.00 |
|  |  | CC[C@]1(O)CC[C@]2(C)C3=CC[C@]4(C)[C@@H]([C@H](C)CC[C@@H](O)C(C)(C)C#N)CC[C@H]4[C@@H]3CC[C@H]2C1 [Compound C-28, (3R,6R)-6-((3S,5S,8S,10S,13R,14S,17R)-3-ethyl-3-hydroxy-10,13-dimethyl-2,3,4,5,6,7,8,10,12,13,14,15,16,17-tetradecahydro-1H-cyclopenta[a]phenanthren-17-yl)-3-hydroxy-2,2-dimethylheptanenitrile] | 7.00 to 9.00 |  | 7.00 to 9.00 |
|  |  | CC[C@]1(O)CC[C@]2(C)C3=CC[C@]4(C)[C@@H]([C@H](C)CC[C@H](O)C(C)(C)C#N)CC[C@H]4[C@@H]3CC[C@H]2C1 [Compound C-29, (3S,6R)-6-((3S,5S,8S,10S,13R,14S,17R)-3-ethyl-3-hydroxy-10,13-dimethyl-2,3,4,5,6,7,8,10,12,13,14,15,16,17-tetradecahydro-1H-cyclopenta[a]phenanthren-17-yl)-3-hydroxy-2,2-dimethylheptanenitrile] | 7.00 to 9.00 |  | 7.00 to 9.00 |
|  |  | C[C@H](CC[C@H](O)C1(C#N)CCC1)[C@H]1CC[C@H]2[C@@H]3CC[C@H]4C[C@@](C)(O)CC[C@]4(C)C3=CC[C@]12C [Compound C-30, 1-((1S,4R)-1-hydroxy-4-((3S,5S,8S,10S,13R,14S,17R)-3-hydroxy-3,10,13-trimethyl-2,3,4,5,6,7,8,10,12,13,14,15,16,17-tetradecahydro-1H-cyclopenta[a]phenanthren-17-yl)pentyl)cyclobutane-1-carbonitrile] | 6.30 to 7.00 |  | 6.30 to 7.00 |
|  |  | C[C@H](CC[C@@H](O)C1(C#N)CCC1)[C@H]1CC[C@H]2[C@@H]3CC[C@H]4C[C@@](C)(O)CC[C@]4(C)C3=CC[C@]12C [Compound C-31, 1-((1R,4R)-1-hydroxy-4-((3S,5S,8S,10S,13R,14S,17R)-3-hydroxy-3,10,13-trimethyl-2,3,4,5,6,7,8,10,12,13,14,15,16,17-tetradecahydro-1H-cyclopenta[a]phenanthren-17-yl)pentyl)cyclobutane-1-carbonitrile] | 7.00 to 9.00 |  | 7.00 to 9.00 |
|  |  | C[C@H](CC[C@@H](O)C1(C#N)CC1)[C@H]1CC[C@H]2[C@@H]3CC[C@H]4C[C@@](C)(O)CC[C@]4(C)C3=CC[C@]12C [Compound C-32, 1-((1R,4R)-1-hydroxy-4-((3S,5S,8S,10S,13R,14S,17R)-3-hydroxy-3,10,13-trimethyl-2,3,4,5,6,7,8,10,12,13,14,15,16,17-tetradecahydro-1H-cyclopenta[a]phenanthren-17-yl)pentyl)cyclopropane-1-carbonitrile] | 7.00 to 9.00 |  | 7.00 to 9.00 |
|  |  | C[C@H](CC[C@H](O)C1(C#N)CC1)[C@H]1CC[C@H]2[C@@H]3CC[C@H]4C[C@@](C)(O)CC[C@]4(C)C3=CC[C@]12C [Compound C-33, 1-((1S,4R)-1-hydroxy-4-((3S,5S,8S,10S,13R,14S,17R)-3-hydroxy-3,10,13-trimethyl-2,3,4,5,6,7,8,10,12,13,14,15,16,17-tetradecahydro-1H-cyclopenta[a]phenanthren-17-yl)pentyl)cyclopropane-1-carbonitrile] | 6.30 to 7.00 |  | 6.30 to 7.00 |
|  |  | C[C@H](CC[C@@H](O)C(C)(C)C#N)[C@H]1CC[C@H]2[C@@H]3CC[C@H]4C[C@@](C)(O)CC[C@]4(C)C3=CC[C@]12C [Compound C-34, (3R,6R)-3-hydroxy-6-((3S,5S,8S,10S,13R,14S,17R)-3-hydroxy-3,10,13-trimethyl-2,3,4,5,6,7,8,10,12,13,14,15,16,17-tetradecahydro-1H-cyclopenta[a]phenanthren-17-yl)-2,2-dimethylheptanenitrile] | 7.00 to 9.00 |  | 7.00 to 9.00 |
|  |  | C[C@H](CC[C@H](O)C(C)(C)C#N)[C@H]1CC[C@H]2[C@@H]3CC[C@H]4C[C@@](C)(O)CC[C@]4(C)C3=CC[C@]12C [Compound C-35, (3S,6R)-3-hydroxy-6-((3S,5S,8S,10S,13R,14S,17R)-3-hydroxy-3,10,13-trimethyl-2,3,4,5,6,7,8,10,12,13,14,15,16,17-tetradecahydro-1H-cyclopenta[a]phenanthren-17-yl)-2,2-dimethylheptanenitrile] | 7.00 to 9.00 |  | 7.00 to 9.00 |
| < 100 | < 6.00 | CC[C@@]1(O)CC[C@@H]2CC[C@@H]3[C@H](CC[C@]4(C)[C@@H]([C@H](C)CC[C@@](C)(O)C(F)(F)F)CC[C@@H]34)[C@@]2(C)CC1 [Compound D-1, (1R,3aS,3bR,5aS,8R,10aS,10bS,12aR)-8-ethyl-10a,12a-dimethyl-1-((2R,5R)-6,6,6-trifluoro-5-hydroxy-5-methylhexan-2-yl)octadecahydrocyclohepta[a]cyclopenta[f]naphthalen-8-ol] |  |  |  |
| < 100 | < 6.00 | CC[C@]1(O)CC[C@@H]2CC[C@@H]3[C@H](CC[C@]4(C)[C@@H]([C@H](C)CC[C@@](C)(O)C(F)(F)F)CC[C@@H]34)[C@@]2(C)CC1 [Compound D-2, (1R,3aS,3bR,5aS,8S,10aS,10bS,12aR)-8-ethyl-10a,12a-dimethyl-1-((2R,5R)-6,6,6-trifluoro-5-hydroxy-5-methylhexan-2-yl)octadecahydrocyclohepta[a]cyclopenta[f]naphthalen-8-ol] |  |  |  |
| 100 to 200 | 6.30 to 7.00 | CC[C@@]1(O)CC[C@@H]2CC[C@@H]3[C@H](CC[C@]4(C)[C@@H]([C@H](C)CC[C@](C)(O)C(F)(F)F)CC[C@@H]34)[C@@]2(C)CC1 [Compound D-3, (1R,3aS,3bR,5aS,8R,10aS,10bS,12aR)-8-ethyl-10a,12a-dimethyl-1-((2R,5S)-6,6,6-trifluoro-5-hydroxy-5-methylhexan-2-yl)octadecahydrocyclohepta[a]cyclopenta[f]naphthalen-8-ol] |  |  |  |
|  | < 6.00 | CC[C@]1(O)CC[C@@H]2CC[C@@H]3[C@H](CC[C@]4(C)[C@@H]([C@H](C)CC[C@](C)(O)C(F)(F)F)CC[C@@H]34)[C@@]2(C)CC1 [Compound D-4, (1R,3aS,3bR,5aS,8S,10aS,10bS,12aR)-8-ethyl-10a,12a-dimethyl-1-((2R,5S)-6,6,6-trifluoro-5-hydroxy-5-methylhexan-2-yl)octadecahydrocyclohepta[a]cyclopenta[f]naphthalen-8-ol] |  |  |  |

Reference: patent US20240368214A1, “POSITIVE NMDA-MODULATING COMPOUNDS AND METHODS OF USE THEREOF” (SAGE THERAPEUTICS, INC., priority 2021, published 2024)
